From patent US20030229066A1, “Novel heterocyclic urea derivatives and their use as dopamine D3 receptor ligands” (priority 2001, published 2003) come the findings set out here.

By Ki is commonly meant a dissociation constant, usually derived from enzyme kinetics or from competition with a known ligand. Low readings indicate a stronger hold on the target, high ones a looser hold on the target.

T1 sequence (P35462 whole entry): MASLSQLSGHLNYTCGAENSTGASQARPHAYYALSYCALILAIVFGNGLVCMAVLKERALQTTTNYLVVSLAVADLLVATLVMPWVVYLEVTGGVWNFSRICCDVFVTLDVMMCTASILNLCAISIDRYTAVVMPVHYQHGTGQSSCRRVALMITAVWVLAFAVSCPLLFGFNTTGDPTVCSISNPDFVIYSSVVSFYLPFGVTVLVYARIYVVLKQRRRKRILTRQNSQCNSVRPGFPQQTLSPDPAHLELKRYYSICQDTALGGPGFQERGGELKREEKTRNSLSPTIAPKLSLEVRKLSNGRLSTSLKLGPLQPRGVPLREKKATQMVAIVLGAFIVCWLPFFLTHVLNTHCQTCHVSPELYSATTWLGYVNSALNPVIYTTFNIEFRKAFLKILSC

The assay concerns the target T1, cloned human dopamine D3 receptors (Homo sapiens, UniProt P35462).
T1 construct: expressed in transfected cells
As to the kind of experiment: [N-Methyl-3H]Spiroperidol binding to cloned human dopamine D3 receptors. In outline:
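Competition binding on homogenized CHO cells stably expressing human D3, with 0.4 nM [3H]NMSP (final), 37 °C for 30 min, filtration and scintillation counting. Nonspecific binding defined with 3 μM S(-)-eticlopride; typically eight test concentrations, 10^−5–10^−8 M final. Ki by Cheng-Prusoff from one-site competition fits, duplicate means.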
The compound `O=C(NCCCCN1CCCN(c2noc3ccsc23)CC1)Nc1cccc(C(F)(F)F)c1` [compound 829432] registered a Ki of 226 nM.

The compound `COc1ccc(NC(=O)NCCCCN2CCCN(c3noc4ccsc34)CC2)cc1` [compound 829433] came in with a Ki of 216 nM. This Ki and that of the compound before are within 1.5-fold of each other.

Compound `O=C(NCCCCN1CCCN(c2noc3ccsc23)CC1)Nc1ccc(Br)cc1` [compound 829434] had a Ki of 197 nM.

As for `CCOc1ccc(NC(=O)NCCCCN2CCC(c3noc4c(C)csc34)CC2)cc1` [compound 829873], the Ki was 27.7 nM.

`CCOc1ccc(NC(=O)N(CCCCN2CCC(c3noc4c(C)csc34)CC2)C(=O)Nc2ccc(OCC)cc2)cc1` [compound 829874] returned a Ki of 360 nM. Compared with the last compound, the Ki is about 13-fold higher.

On to `Cc1csc2c(C3CCN(CCCCN(C(=O)Nc4cccc(F)c4)C(=O)Nc4cccc(F)c4)CC3)noc12` [compound 829875], for which the affinity corresponds to a Ki of 94.7 nM.

The compound `COc1cccc(NC(=O)N(CCCCN2CCC(c3noc4c(C)csc34)CC2)C(=O)Nc2cccc(OC)c2)c1` [compound 829876] showed a Ki of 77.1 nM.

In turn, `Cc1cccc(NC(=O)NCCCCN2CCC(c3noc4c(C)csc34)CC2)c1` [compound 829878] came in with a Ki of 8.78 nM.

For `Cc1csc2c(C3CCN(CCCCNC(=O)Nc4ccccc4F)CC3)noc12` [compound 829879], the Ki turned out to be 354 nM. This Ki is about 40-fold higher than that of the compound before.

In turn, `Cc1csc2c(C3CCN(CCCCNC(=O)Nc4cccc(C(F)(F)F)c4Cl)CC3)noc12` [compound 829882] gave a Ki of 143 nM.

For `Cc1ccc(NC(=O)NCCCCN2CCC(c3noc4cc(C)sc34)CC2)cc1` [compound 830517], the Ki is 9.04 nM. Against the preceding compound, the Ki is about 16-fold lower.

Compound `COc1ccc(NC(=O)NCCCCN2CCC(c3noc4cc(C)sc34)CC2)cc1` [compound 830518] registered an inhibition constant Ki of 9.16 nM.

With `O=C(NC[C@@H]1C[C@H]1CN1CCN(c2csc3cc(C(F)(F)F)ccc23)CC1)Nc1cccc(F)c1` [compound 832786], the Ki came out at 61.6 nM.

Consider `COc1ccc(NC(=O)NC[C@@H]2C[C@H]2CN2CCN(c3csc4cc(C(F)(F)F)ccc34)CC2)cc1` [compound 832810], for which the Ki is 33.5 nM.

`O=C(NC[C@@H]1C[C@H]1CN1CCN(c2csc3cc(C(F)(F)F)ccc23)CC1)NC1CCCCC1` [compound 832811] registered a Ki of 18.2 nM.

In turn, `O=C(NC[C@@H]1C[C@H]1CN1CCN(c2csc3cc(C(F)(F)F)ccc23)CC1)Nc1ccccc1C(F)(F)F` [compound 832812] showed a Ki of 39.5 nM.

`O=C(NC[C@@H]1C[C@H]1CN1CCN(c2csc3cc(C(F)(F)F)ccc23)CC1)Nc1cccc(Cl)c1` [compound 832813] yielded a Ki of 50.8 nM. This Ki and that of the compound before are within 1.5-fold of each other.

`O=C(NC[C@@H]1C[C@H]1CN1CCN(c2csc3cc(C(F)(F)F)ccc23)CC1)Nc1ccc(Oc2ccccc2)cc1` [compound 832820] yielded an inhibition constant (Ki) of 3.9 nM.

`CC(C)c1ccc(NC(=O)NC[C@@H]2C[C@H]2CN2CCN(c3csc4cc(C(F)(F)F)ccc34)CC2)cc1` [compound 832919] displayed a Ki of 45.2 nM.

`COc1cccc(NC(=O)NC[C@@H]2C[C@H]2CN2CCN(c3csc4cc(C(F)(F)F)ccc34)CC2)c1` [compound 833203] gave an inhibition constant (Ki) of 18.2 nM.

In the case of `O=C(NCCCN1CCCCC1)NC[C@@H]1C[C@H]1CN1CCN(c2csc3cc(C(F)(F)F)ccc23)CC1` [compound 833258], the Ki is 0.39 nM.

`O=C(NCCCn1ccnc1)NC[C@@H]1C[C@H]1CN1CCN(c2csc3cc(C(F)(F)F)ccc23)CC1` [compound 833306, 1-(3-Imidazol-1-yl-propyl)-3-{(1R, 2R )-2-[4-(6-trifluoromethyl-benzo[b]thiophen-3yl-)-piperazin-1-ylmethyl]-cyclopropylmethyl}-urea]: the affinity, expressed as Ki, was 0.238 nM.

Turning to `C[C@H]1CC[C@H](NC(=O)NC[C@@H]2C[C@H]2CN2CCN(c3csc4cc(C(F)(F)F)ccc34)CC2)CC1` [compound 833356], affinity was put at a Ki of 29.1 nM.

Regarding `O=C(NCCCCN1CCN(c2csc3cc(C(F)(F)F)ccc23)CC1)Nc1ccc(C(=O)O)cc1` [compound 833724], the inhibitory constant (Ki) came to 2.1 nM.

`O=C(NCCCCN1CCN(c2csc3cc(C(F)(F)F)ccc23)CC1)Nc1ccc(CO)cc1` [compound 833725] gave a Ki of 0.602 nM.
